Assays:
[1] = Colon and plasma mouse pharmacokinetics; format: in vivo; conditions: mouse, colon tissue / plasma; male Balb/c mice, 10 mg/kg PO; ratio of the colon AUC to the plasma AUC
In short: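 Male Balb/c mice given 10 mg/kg PO in 1% HPMC + 0.1% Tween-80; plasma, colon tissue and colon contents taken at 0.5, 2 and 6 h, quantified by LC/MS/MS. Non-compartmental analysis on means of 2 animals/time point; colon:plasma ratio taken as colon AUC over plasma AUC.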

[2] = target: JAK1 (Homo sapiens (Human), UniProt P23458); assay: Biochemical JAK1 kinase assay (LanthaScreen)
In short: (§1)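 GST-JAK + GFP-STAT1 peptide, HEPES pH 7.5/MgCl2/EGTA/Brij-35 buffer; cpd preincubation 1 h RT; ATP start, 1 h RT; stop with 10 mM EDTA + 2 nM Tb-anti-pSTAT1; TR-FRET 520/495. 4-parameter IC50 → pKi (Cheng-Prusoff).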

[3] = target: Tyk2 (Homo sapiens (Human), UniProt P29597); assay: Biochemical Tyk2 kinase assay (LanthaScreen)
In short: as §1

[4] = system: IL-2 stimulated STAT5 phosphorylation in Tall-1 human T cell line (JAK3); assay: Cellular JAK3 potency assay: inhibition of IL-2 stimulated pSTAT5 in Tall-1 T cells; format: cell-based; conditions: IL-2 stimulated pSTAT5, Tall-1 T cells
In short: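 Tall-1 cells, 45,000 per well, preincubated 1 hour with compound at 37 °C, then stimulated 30 minutes with IL-2 at 300 ng/ml final. pSTAT5 (Tyr694/699) in lysates quantified by AlphaLISA SureFire Ultra. pIC50 derived from inhibition curves, given as mean with SD.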

Sequence of JAK1 (P23458 whole entry): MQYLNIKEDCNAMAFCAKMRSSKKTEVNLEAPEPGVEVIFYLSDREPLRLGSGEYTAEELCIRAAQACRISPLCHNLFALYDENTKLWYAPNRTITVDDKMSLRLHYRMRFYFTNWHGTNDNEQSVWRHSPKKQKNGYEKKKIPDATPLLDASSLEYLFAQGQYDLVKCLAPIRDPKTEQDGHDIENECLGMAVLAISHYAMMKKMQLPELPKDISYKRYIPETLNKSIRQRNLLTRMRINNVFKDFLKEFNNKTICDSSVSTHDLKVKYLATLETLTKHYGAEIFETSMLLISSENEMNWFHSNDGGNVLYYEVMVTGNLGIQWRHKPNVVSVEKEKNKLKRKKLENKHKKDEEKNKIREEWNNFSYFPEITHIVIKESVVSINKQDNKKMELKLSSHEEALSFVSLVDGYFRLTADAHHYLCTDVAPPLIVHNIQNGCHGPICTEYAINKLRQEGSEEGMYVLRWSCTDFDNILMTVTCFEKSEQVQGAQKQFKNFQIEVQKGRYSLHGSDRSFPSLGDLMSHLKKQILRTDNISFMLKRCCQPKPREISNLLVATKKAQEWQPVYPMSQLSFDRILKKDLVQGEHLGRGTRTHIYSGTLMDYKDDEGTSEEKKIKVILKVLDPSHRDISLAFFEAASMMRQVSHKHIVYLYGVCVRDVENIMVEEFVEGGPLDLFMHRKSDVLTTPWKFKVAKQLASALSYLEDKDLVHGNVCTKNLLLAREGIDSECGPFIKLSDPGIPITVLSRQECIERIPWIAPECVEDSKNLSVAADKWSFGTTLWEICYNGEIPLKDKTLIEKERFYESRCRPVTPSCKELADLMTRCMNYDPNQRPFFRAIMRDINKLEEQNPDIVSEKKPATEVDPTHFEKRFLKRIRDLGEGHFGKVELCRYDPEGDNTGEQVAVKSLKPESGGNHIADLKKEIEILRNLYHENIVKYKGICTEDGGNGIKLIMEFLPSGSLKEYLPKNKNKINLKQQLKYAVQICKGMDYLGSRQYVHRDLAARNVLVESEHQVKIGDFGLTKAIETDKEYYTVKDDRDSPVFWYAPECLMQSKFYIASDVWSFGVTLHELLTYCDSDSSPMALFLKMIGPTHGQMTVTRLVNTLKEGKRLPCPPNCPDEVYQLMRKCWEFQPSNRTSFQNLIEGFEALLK
Sequence of Tyk2 (P29597 whole entry): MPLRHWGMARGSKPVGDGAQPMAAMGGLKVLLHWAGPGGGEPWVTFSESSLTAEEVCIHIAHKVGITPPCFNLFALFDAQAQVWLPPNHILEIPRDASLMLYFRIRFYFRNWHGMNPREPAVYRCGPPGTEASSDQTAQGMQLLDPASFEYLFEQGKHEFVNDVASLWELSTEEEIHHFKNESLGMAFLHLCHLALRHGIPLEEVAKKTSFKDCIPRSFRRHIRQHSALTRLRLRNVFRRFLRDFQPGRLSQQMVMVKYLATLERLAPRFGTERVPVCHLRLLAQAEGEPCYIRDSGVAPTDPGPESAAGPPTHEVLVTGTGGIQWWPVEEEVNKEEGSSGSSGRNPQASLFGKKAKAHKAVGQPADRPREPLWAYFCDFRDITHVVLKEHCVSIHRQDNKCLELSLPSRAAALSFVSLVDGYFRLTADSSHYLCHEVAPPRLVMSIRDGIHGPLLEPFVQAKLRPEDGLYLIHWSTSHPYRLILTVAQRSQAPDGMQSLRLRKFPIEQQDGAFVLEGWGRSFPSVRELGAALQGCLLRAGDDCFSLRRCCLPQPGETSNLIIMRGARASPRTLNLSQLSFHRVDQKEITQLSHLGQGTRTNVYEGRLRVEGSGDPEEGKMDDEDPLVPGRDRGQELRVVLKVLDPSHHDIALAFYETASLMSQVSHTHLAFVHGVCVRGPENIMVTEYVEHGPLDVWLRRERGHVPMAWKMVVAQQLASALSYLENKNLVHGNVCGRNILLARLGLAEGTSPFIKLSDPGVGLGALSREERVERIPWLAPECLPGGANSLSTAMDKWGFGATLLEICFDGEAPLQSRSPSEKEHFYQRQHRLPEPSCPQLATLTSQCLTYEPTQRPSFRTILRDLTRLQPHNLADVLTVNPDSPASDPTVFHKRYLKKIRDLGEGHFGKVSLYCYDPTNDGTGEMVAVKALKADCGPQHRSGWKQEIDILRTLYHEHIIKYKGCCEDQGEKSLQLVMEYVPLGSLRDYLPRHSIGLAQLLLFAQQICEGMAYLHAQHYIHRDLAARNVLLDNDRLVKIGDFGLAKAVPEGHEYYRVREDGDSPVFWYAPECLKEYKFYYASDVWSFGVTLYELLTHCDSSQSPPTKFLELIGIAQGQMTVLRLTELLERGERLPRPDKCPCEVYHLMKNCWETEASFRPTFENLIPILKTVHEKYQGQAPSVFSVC

SMILES	Kp [1]	JAK 1 (pKi) [2]	Tyk 2 (pKi) [3]	Tall-1 (pIC50) [4]
C=CC(=O)N1CC(CCn2c(=O)ccc3cnc(Nc4cccc(CN5CCN(C(=O)N(C)C)CC5)c4)nc32)C1 [Example 5, 4-(3-((8-(2-(1-acryloylazetidin-3-yl)ethyl)-7-oxo-7,8-dihydropyrido[2,3-d]pyrimidin-2-yl)amino)benzyl)-N,N-dimethylpiperazine-1-carboxamide]	> 100	E (E represents a pKi value of 7 or below (Ki of 100 nM or above))	E (E represents a pKi value of 7 or below (Ki of 100 nM or above))	B (B represents a pC50 value between 6.7 (included) and 7.5 (IC50 between 200 nM and 32 nM))
C=CC(=O)N1CC(CCn2c(=O)ccc3cnc(Nc4ccc(N5CCN(C(C)=O)CC5)cc4)nc32)C1 [Example 2, 2-((4-(4-acetylpiperazin-1-yl)phenyl)amino)-8-(2-(1-acryloylazetidin-3-yl)ethyl)pyrido[2,3-d]pyrimidin-7(8H)-one]	> 100	E (E represents a pKi value of 7 or below (Ki of 100 nM or above))	E (E represents a pKi value of 7 or below (Ki of 100 nM or above))	B (B represents a pC50 value between 6.7 (included) and 7.5 (IC50 between 200 nM and 32 nM))
C=CC(=O)N1CCN(CCn2c(=O)ccc3cnc(Nc4ccc(N5CCN(C(=O)CCSC)CC5)cc4)nc32)CC1 [Example 4, 8-(2-(4-acryloylpiperazin-1-yl)ethyl)-2-((4-(4-(3-(methylthio)propanoyl)piperazin-1-yl)phenyl)amino)pyrido[2,3-d]pyrimidin-7(8H)-one]	> 1000	E (E represents a pKi value of 7 or below (Ki of 100 nM or above))	E (E represents a pKi value of 7 or below (Ki of 100 nM or above))	B (B represents a pC50 value between 6.7 (included) and 7.5 (IC50 between 200 nM and 32 nM))
C=CC(=O)N1CCN(CCn2c(=O)ccc3cnc(Nc4cnn(C)c4)nc32)[C@@H](CC)C1 [Example 12, (S)-8-(2-(4-acryloyl-2-ethylpiperazin-1-yl)ethyl)-2-((1-methyl-1H-pyrazol-4-yl)amino)pyrido[2,3-d]pyrimidin-7(8H)-one]	> 50	E (E represents a pKi value of 7 or below (Ki of 100 nM or above))	E (E represents a pKi value of 7 or below (Ki of 100 nM or above))	B (B represents a pC50 value between 6.7 (included) and 7.5 (IC50 between 200 nM and 32 nM))
C=CC(=O)N1CC(CCn2c(=O)ccc3cnc(Nc4ccc(N5CCN(C(=O)CSC)CC5)cc4)nc32)C1 [Example 13, 8-(2-(1-acryloylazetidin-3-yl)ethyl)-2-((4-(4-(2-(methylthio)acetyl)piperazin-1-yl)phenyl)amino)pyrido[2,3-d]pyrimidin-7(8H)-one]	> 1000	E (E represents a pKi value of 7 or below (Ki of 100 nM or above))	E (E represents a pKi value of 7 or below (Ki of 100 nM or above))	B (B represents a pC50 value between 6.7 (included) and 7.5 (IC50 between 200 nM and 32 nM))
C=CC(=O)N1CC(CCn2c(=O)ccc3cnc(Nc4cccc(N5CCN(C(=O)CCSC)CC5)c4)nc32)C1 [Example 7, 8-(2-(1-acryloylazetidin-3-yl)ethyl)-2-((3-(4-(3-(methylthio)propanoyl)piperazin-1-yl)phenyl)amino)pyrido[2,3-d]pyrimidin-7(8H)-one]	> 100	E (E represents a pKi value of 7 or below (Ki of 100 nM or above))	E (E represents a pKi value of 7 or below (Ki of 100 nM or above))	B (B represents a pC50 value between 6.7 (included) and 7.5 (IC50 between 200 nM and 32 nM))
C=CC(=O)N1CCN(CCn2c(=O)ccc3cnc(Nc4ccc(N5CCN(C)CC5)cc4)nc32)CC1 [Example 1, 8-(2-(4-acryloylpiperazin-1-yl)ethyl)-2-((4-(4-methylpiperazin-1-yl)phenyl)amino)pyrido[2,3-d]pyrimidin-7(8H)-one]	> 1000	E (E represents a pKi value of 7 or below (Ki of 100 nM or above))	E (E represents a pKi value of 7 or below (Ki of 100 nM or above))	B (B represents a pC50 value between 6.7 (included) and 7.5 (IC50 between 200 nM and 32 nM))

From patent publication US11697648B2, “Fused pyrimidine pyridinone compounds as JAK inhibitors” (THERAVANCE BIOPHARMA R&D IP, LLC, priority 2019, dated 2023)
